According to article PMC7866225, “Microwave-Assisted Synthesis of (Piperidin-1-yl)quinolin-3-yl)methylene)hydrazinecarbothioamides as Potent Inhibitors of Cholinesterases: A Biochemical and In Silico Approach” (Molecules, 2021):

Columns and labels:
[1] = In vitro cytotoxicity, MTT assay; format: cell-based; conditions: human, HepG2 cells, 24 h, control = 100, read-out: Cell Viability; for viability at 24 h, 50 μg/mL: HepG2, 50 μg/mL; for viability at 24 h, 100 μg/mL: HepG2, 100 μg/mL; for viability at 24 h, 200 μg/mL: HepG2, 200 μg/mL; for viability at 24 h, 500 μg/mL: HepG2, 500 μg/mL; for viability at 24 h, 1000 μg/mL: HepG2, 1000 μg/mL
Method: (§1) HepG2 cell line was obtained from the cell culture laboratory established in The University of Lahore. These cell lines were preserved in cryo vials present in liquid nitrogen. Cryo vials were revived for further processing.
(§2) The cryo vials obtained from liquid nitrogen cylinder were thawed. Then HepG2 cells were cultured in the culturing flask in which DMEM-HG along with 10% fetal bovine serum (FBS), supplemented with […] (Sigma) and 100 U/mL streptomycin (Sigma) were added. Cultures were maintained in a humidified incubator supplied with 5% CO2 at 37 °C. Experiments were performed in triplicates. When cultured HepG2 cells achieved 70–80% confluence their subculturing was conducted. For splitting, the cells attached to the walls of the culturing flask were washed with 1× phosphate buffer saline (PBS) and incubated with 0.05% trypsin-EDTA until cells detached from the surface of culturing flask. The detachment of the cells was confirmed by observing the flask under the inverted microscope. A few drops of FBS were added to the flask and mixed well by stirring. The mixture was centrifuged at 2000 rpm for 5 min. After centrifugation the supernatant was removed, and pellet was resuspended. HepG2 cells were cultured onto 96-well plates for measurement of cell viability. Treatment was given for both compounds at a concentration of 0–1000 µg/mL for 24 h.
(§3) After 4 h formazan crystals were solubilized with 10% sodium dodecylsulphate (SDS) (Invitrogen Inc.) and absorbance was taken at 570 nm. Percentage viability was calculated according to the following formula:% Viable cells = ((abs sample − abs blank) / (abs control − abs blank)) × 100 (1) where abs stands for absorbance.

[2] = test system: HepG2 cells; test: In vitro cytotoxicity, MTT assay; format: cell-based; conditions: for Status: HepG2, MTT, 0–1000 µg/mL, 24 h
Method: as §1, §2, §3

[3] = molecular target: Butyrylcholinesterase (BChE) (Equus caballus, UniProt P81908); test: biochemical; conditions: Ellman's method, triplicate; read-out: Butyrylcholinesterse (BChE) IC50 ± SEM
Butyrylcholinesterase (BChE), sequence (P81908 whole entry): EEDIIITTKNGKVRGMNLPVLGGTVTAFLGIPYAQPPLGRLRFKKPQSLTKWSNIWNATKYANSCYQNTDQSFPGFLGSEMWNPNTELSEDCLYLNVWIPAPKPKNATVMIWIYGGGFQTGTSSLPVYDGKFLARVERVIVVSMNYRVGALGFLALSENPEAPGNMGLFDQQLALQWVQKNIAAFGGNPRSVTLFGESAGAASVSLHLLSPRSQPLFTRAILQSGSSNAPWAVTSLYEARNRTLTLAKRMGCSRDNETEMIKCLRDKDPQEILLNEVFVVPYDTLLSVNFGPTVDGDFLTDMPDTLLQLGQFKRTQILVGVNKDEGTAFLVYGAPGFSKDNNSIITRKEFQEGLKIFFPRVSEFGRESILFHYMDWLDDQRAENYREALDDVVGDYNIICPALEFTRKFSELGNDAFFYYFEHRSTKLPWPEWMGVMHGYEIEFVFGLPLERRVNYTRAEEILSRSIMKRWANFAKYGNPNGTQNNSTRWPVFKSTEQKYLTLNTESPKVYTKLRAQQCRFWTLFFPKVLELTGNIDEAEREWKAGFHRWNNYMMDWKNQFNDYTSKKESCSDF
Method: (§4) Modified Ellman’s method was adopted to investigate the inhibitory potential of newly synthesized compounds against cholinesterase enzymes. The assay protocol involved 96-well plates (100 μL per well). Each well contained 20 μL of assay buffer solution, 10 μL of test sample, and 10 μL of 0.5 U/mg of AChE (for AChE inhibition assay) or 10 μL of 3.4 U/mg of BChE (for BChE inhibition assay). This mixture was incubated at 25 °C for 10 min followed by the addition of substrate (10 μL). For AChE inhibition assay, acetylthiocholine iodide (ATCI, 1 mM) while for BChE assay, butyrylthiocholine chloride (BTCCl, 1 mM), was added. This mixture was incubated for 15 min at 37 °C. Ellman reagent (5,5′-dithio-bis(2-nitrobenzoic acid), DTNB, 3 mM) was added. […] Blank assay was also performed. All the analyses were performed in triplicate. IC50 values were also calculated for the synthesized compounds in GraphPad prism 5.0. using nonlinear regression method.

[4] = molecular target: Acetylcholinesterase (AChE) (Electrophorus electricus, UniProt O42275); test: biochemical; conditions: Ellman's method, triplicate; read-out: Acetylcholinesterase (AChE) IC50 ± SEM
Acetylcholinesterase (AChE), sequence (O42275 24-633): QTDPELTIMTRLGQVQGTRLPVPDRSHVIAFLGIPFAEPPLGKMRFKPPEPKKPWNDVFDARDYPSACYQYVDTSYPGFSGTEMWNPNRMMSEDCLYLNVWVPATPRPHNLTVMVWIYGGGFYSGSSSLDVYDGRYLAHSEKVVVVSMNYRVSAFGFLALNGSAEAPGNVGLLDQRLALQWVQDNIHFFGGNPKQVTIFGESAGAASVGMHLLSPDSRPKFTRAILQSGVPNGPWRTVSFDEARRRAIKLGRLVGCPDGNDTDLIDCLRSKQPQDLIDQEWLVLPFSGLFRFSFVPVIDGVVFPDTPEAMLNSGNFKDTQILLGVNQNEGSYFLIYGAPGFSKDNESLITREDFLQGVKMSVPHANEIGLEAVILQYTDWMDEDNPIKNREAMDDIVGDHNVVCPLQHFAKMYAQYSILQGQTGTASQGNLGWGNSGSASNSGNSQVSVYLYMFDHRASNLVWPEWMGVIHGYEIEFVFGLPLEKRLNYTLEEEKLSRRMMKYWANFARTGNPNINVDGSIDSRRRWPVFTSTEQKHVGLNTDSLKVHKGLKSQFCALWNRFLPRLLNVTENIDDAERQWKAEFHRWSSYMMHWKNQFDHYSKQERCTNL
Method: as §4

| Structure (SMILES) | viability at 24 h, 50 μg/mL [1] [%] | viability at 24 h, 100 μg/mL [1] [%] | viability at 24 h, 200 μg/mL [1] [%] | viability at 24 h, 500 μg/mL [1] [%] | viability at 24 h, 1000 μg/mL [1] [%] | Status [2] | IC50 [3] [µM] | IC50 [4] [µM] | IC50 ([2]; HepG2, standard drug) [µg/mL] |
| --- | --- | --- | --- | --- | --- | --- | --- | --- | --- |
| Cc1ccc2nc(N3CCCCC3)c(C=NNC(N)=S)cc2c1 [Compound 5a, 2-((6-Methyl-2-(piperidin-1-yl)quinolin-3-yl)methylene)hydrazinecarbothioamide] | 95.4 | 88.9 | 92.8 | 95.8 | 102 | Non-cytotoxic | 35.3 ± 0.01 | 27.6 ± 0.08 |  |
| Cc1ccc2nc(N3CCCCC3)c(C=NNC(=S)Nc3ccccc3)cc2c1 [Compound 5b, 2-((6-Methyl-2-(piperidin-1-yl)quinolin-3-yl)methylene)-N-phenylhydrazinecarbothioamide] | 106 | 107 | 139 | 169 | 227 | Proliferative | 33.1 ± 0.09 | 25.1 ± 0.25 |  |
| Cc1ccc(NC(=S)NN=Cc2cc3cc(C)ccc3nc2N2CCCCC2)c(C)c1 [Compound 5c, N-(2,4-Dimethylphenyl)-2-((6-methyl-2-(piperidin-1-yl)quinolin-3-yl)methylene)hydrazine carbothioamide] | 105 | 109 | 122 | 188 | 262 | Proliferative | 37.2 ± 0.83 | 42.3 ± 0.99 |  |
| Cc1ccc2nc(N3CCCCC3)c(C=NNC(=S)Nc3c(C)cccc3C)cc2c1 [Compound 5d, N-(2,6-Dimethylphenyl)-2-((6-methyl-2-(piperidin-1-yl)quinolin-3-yl)methylene)hydrazine carbothioamide] | 105 | 108 | 110 | 134 | 131 | Proliferative | 29.8 ± 1.2 | 25.9 ± 0.96 |  |
| Cc1ccc2nc(N3CCCCC3)c(C=NNC(=S)Nc3ccccc3Cl)cc2c1 [Compound 5e, N-(2-Chlorophenyl)-2-((6-methyl-2-(piperidin-1-yl)quinolin-3-yl)methylene)hydrazine carbothioamide] | 94.2 | 97.2 | 158 | 196 | 76.3 | Cytotoxic | 40.26 ± 0.17 | 35.2 ± 0.54 |  |
| Cc1ccc2nc(N3CCCCC3)c(C=NNC(=S)Nc3cccc(Cl)c3)cc2c1 [Compound 5f, N-(3-Chlorophenyl)-2-((6-methyl-2-(piperidin-1-yl)quinolin-3-yl)methylene)hydrazine carbothioamide] | 84.8 | 94.9 | 93.9 | 93.2 | 56.9 | Cytotoxic | 24.6 ± 0.57 | 23.9 ± 0.25 |  |
| Cc1ccc2nc(N3CCCCC3)c(C=NNC(=S)Nc3ccc(Cl)cc3)cc2c1 [Compound 5g, N-(4-Chlorophenyl)-2-((6-methyl-2-(piperidin-1-yl)quinolin-3-yl)methylene)hydrazine carbothioamide] | 84.3 | 96.4 | 94.1 | 122 | 135 | Proliferative | 23.1 ± 0.11 | 19.85 ± 0.14 |  |
| Cc1ccc2nc(N3CCCCC3)c(C=NNC(=S)Nc3ccccc3F)cc2c1 [Compound 5h, N-(2-Fluorophenyl)-2-((6-methyl-2-(piperidin-1-yl)quinolin-3-yl)methylene)hydrazine carbothioamide] | 113 | 121 | 83.8 | 151 | 209 | Proliferative | 25.1 ± 0.99 | 31.3 ± 0.37 |  |
| Cc1ccc2nc(N3CCCCC3)c(C=NNC(=S)Nc3cccc(F)c3)cc2c1 [Compound 5i, N-(3-Fluorophenyl)-2-((6-methyl-2-(piperidin-1-yl)quinolin-3-yl)methylene)hydrazine carbothioamide] | 118 | 99.4 | 97.2 | 99.4 | 149 | Proliferative | 36.23 ± 0.02 | 24.1 ± 0.43 |  |
| Cc1ccc2nc(N3CCCCC3)c(C=NNC(=S)Nc3ccc(F)cc3)cc2c1 [Compound 5j, N-(4-Fluorophenyl)-2-((6-methyl-2-(piperidin-1-yl)quinolin-3-yl)methylene)hydrazine carbothioamide] | 93.4 | 98.1 | 107 | 138 | 166 | Proliferative | 42.4 ± 0.44 | 28.2 ± 0.94 |  |
| CCc1ccc(NC(=S)NN=Cc2cc3cc(C)ccc3nc2N2CCCCC2)cc1 [Compound 5k, N-(4-Ethylphenyl)-2-((6-methyl-2-(piperidin-1-yl)quinolin-3-yl)methylene)hydrazine carbothioamide] | 111 | 110 | 99.6 | 106 | 132 | Proliferative | 32 ± 0.87 | 30.6 ± 0.56 |  |
| Cc1ccc2nc(N3CCCCC3)c(C=NNC(=S)NCc3ccccc3)cc2c1 [Compound 5l, N-Benzyl-2-((6-methyl-2-(piperidin-1-yl)quinolin-3-yl)methylene)hydrazinecarbothioamide] | 101 | 101 | 107 | 109 | 133 | Proliferative | 45.02 ± 0.38 | 35.1 ± 1.2 |  |
| Cc1ccc2nc(N3CCCCC3)c(C=NNC(=S)NCCN3CCOCC3)cc2c1 [Compound 5m, 2-((6-Methyl-2-(piperidin-1-yl)quinolin-3-yl)methylene)-N-(2-morpholinoethyl)hydrazine carbothioamide] | 94 | 102 | 109 | 107 | 115 | Non-cytotoxic | 59.35 ± 0.13 | 62.3 ± 0.68 |  |
| Cc1cccc2cc(C=NNC(N)=S)c(N3CCCCC3)nc12 [Compound 6a, 2-((8-Methyl-2-(piperidin-1-yl)quinolin-3-yl)methylene)hydrazinecarbothioamide] | 82.5 | 86.3 | 80.6 | 83.3 | 77.9 | Cytotoxic | 60.02 ± 0.04 | 36.25 ± 0.36 |  |
| Cc1cccc2cc(C=NNC(=S)Nc3ccccc3)c(N3CCCCC3)nc12 [Compound 6b, 2-((8-Methyl-2-(piperidin-1-yl)quinolin-3-yl)methylene)-N-phenylhydrazinecarbothioamide] | 89.9 | 95.7 | 92.8 | 112 | 69.2 | Cytotoxic | 28.8 ± 0.63 | 25.9 ± 0.45 |  |
| N.N.[Cl][Pt][Cl] [cisplatin, reference compound] |  |  |  |  |  |  |  |  | 20 |
